Measured values: patent US20250049036A1 (priority 2021, published 2025)

What was measured:
Alternaria solani = Alternaria solani test in tomato, preventive, greenhouse; type: in vivo; conditions: preventive spray on tomato, inoculated one day after treatment, read-out: control (efficacy, disease severity) compared to the untreated check
Experimental: The respective compound was dissolved in 2% dimethyl sulfoxide/acetone and then mixed with water containing an emulsifier to the calibrated spray volume of 30 mL. Each spray solution was poured into a spray bottle for further application.
(§1) To test the preventive activity of a compound, healthy young tomato plants, raised in the greenhouse, were sprayed with the active compound preparation at the stated application rate inside the spray cabinets using hollow cone nozzles. One day after treatment, the plants were inoculated with a spore suspension containing 0.24×10^6 Alternaria solani inoculum. The inoculated plants were then kept in a greenhouse chamber at 22-24° C. temperature and 90-95% relative humidity for disease expression.
(§2) A visual assessment of the compound's performance was carried out by rating the disease severity (0 100% scale) on treated plants 3, 7, 10 and 15 days after application. Efficacy (% control) of the compound was calculated by comparing the disease rating in the treatment with the one of the untreated control. The treated plants were also assessed for plant damage by recording symptoms like necrosis, chlorosis and stunting.

Colletotrichum capsici = Colletotrichum capsici (anthracnose) mycelial radial growth on potato dextrose agar; type: cell-based; conditions: Colletotrichum truncatum, 168 h, 25° C., seven days, read-out: control compared to the untreated check
In short: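 Compounds in 0.3% DMSO were mixed into potato dextrose agar, and each plate was seeded with a 5 mm mycelial disc from an actively growing culture. Plates were incubated at 25° C and 60% relative humidity for seven days. Radial growth was compared with untreated control.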

Phytophthora infestans [1] = assay: whole plant or invertebrate; type: in vivo, Phytophthora infestans on tomato; conditions: in Solanum lycopersicum, read-out: control (efficacy, disease severity) compared to the untreated check
Pyricularia oryzae = assay: microbe, parasite or virus in culture; type: cell-based; conditions: 168 h, read-out: control compared to the untreated check
Botrytis cinerea [2] = assay: Botrytis cinerea test on tomato, preventive, greenhouse; type: in vivo; conditions: preventive spray on bean/chili plants (heading: tomato), inoculated one day after treatment, read-out: control (efficacy, disease severity) compared to the untreated check
Phakopsora pachyrhizi = Phakopsora pachyrhizi test on soybean, preventive, greenhouse; type: in vivo; conditions: preventive spray on soybean, inoculated one day after treatment, read-out: control (efficacy, disease severity) compared to the untreated check
In short: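 Greenhouse-grown young soybean plants were sprayed with compound (2% DMSO/acetone, emulsifier in water) at the stated rate. One day later they were inoculated with 2×10^5 P. pachyrhizi inoculum and held at 22-24 °C, 80-90% relative humidity for disease development.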

Phytophthora infestans [3] = assay: microbe, parasite or virus in culture; type: cell-based; conditions: 168 h, read-out: control compared to the untreated check
Parastagonospora nodorum = Parastagonospora nodorum (PARANO) spore growth inhibition in liquid medium, 96-well microtiter plate, OD 600; type: cell-based; conditions: spore suspension in PDB liquid medium, 18° C., 5-6 days, OD at 600, read-out: control compared to the untreated check
In short: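 Read-out is percent growth inhibition from OD at 600 after 5-6 days at 18° C. Compounds, dissolved in DMSO, were diluted in potato dextrose broth and combined in equal volume with a 10^5 spores/ml suspension of PARANO.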

Botrytis cinerea [4] = assay: Botrytis cinerea (gray mold) mycelial radial growth on potato dextrose agar; type: cell-based; conditions: 168 h, 22° C., seven days, read-out: control compared to the untreated check
In short: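 Compounds in 0.3% DMSO were mixed into potato dextrose agar, and plates were seeded with 5 mm mycelial discs from actively growing virulent culture. After seven days at 22 °C and 90% relative humidity, radial growth was measured relative to untreated control.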

Venturia Inequalis = assay: Venturia inequalis (VENTIN) spore growth inhibition in liquid medium, 96-well microtiter plate, OD 600; type: cell-based; conditions: spore suspension in PDB liquid medium, 18° C., 15-18 days, OD at 600, read-out: control compared to the untreated check
Experimental: Potato dextrose (PDB) liquid medium containing a VENTIN (10^5 spores/ml) spore suspension was prepared. For the inhibition assay, each test compound was solved in dimethyl sulfoxide. 100 μl of the test compound in media-solution was added to a 96-well microtiter plate, consequently, the same volume (100 μl) of spore suspension was added to the well making the final test concentrations and the treated plate was incubated at 18° C. for 15-18 days. The growth inhibition was evaluated by measuring the OD at 600. Percent inhibition was calculated with the below formula: […]

Botrytis cinerea [5] = assay: Botrytis cinerea liq. (BOTRCI) spore growth inhibition in liquid medium, 96-well microtiter plate, OD 405 nm; type: cell-based; conditions: spore suspension in YBA liquid medium, 22° C., 5-6 days, OD at 405 nm, read-out: control compared to the untreated check
In short: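 Spore suspension of B. cinerea (10^4 spores/ml) in YBA liquid medium mixed 1:1 with compound diluted from DMSO. Incubated at 22° C. for 5-6 days. Growth read as OD 405 nm; percent inhibition derived from treatment, untreated-control and blank readings.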

Fusarium culmorum = Fusarium culmorum test on wheat, preventive, greenhouse; type: in vivo; conditions: preventive spray on wheat, inoculated one day after treatment, read-out: control (efficacy, disease severity) compared to the untreated check
Experimental: The respective compound was dissolved in 2% dimethyl sulfoxide/acetone and then mixed with water containing an emulsifier to a calibrated spray volume of 30 mL. Each spray solution was poured into a spray bottle for further application.
as §1, with “wheat” for “tomato”, “after the” for “after”, “2×10^6 Fusarium culmorum” for “0.24×10^6 Alternaria solani”, “24°” for “22-24°”, “80-90%” for “90-95%”
as §2

CC(c1ccccc1F)C(C)(C)NC(=O)c1cnc2c(ccn2C)c1 (stereo not drawn) [Compound 3, N-(3-(2-fluorophenyl)-2-methylbutan-2-yl)-1-methyl-1H-pyrrolo[2,3-b]pyridine-5-carboxamide]
≥ 70%: pest or weed control at 500 ppm (Alternaria solani) | inhibition of growth at 300 ppm (Colletotrichum capsici) | pest or weed control at 500 ppm (Phytophthora infestans [1]) | inhibition of growth at 300 ppm (Pyricularia oryzae)

Cn1ccc2cc(C(=O)NC(C)(C)Cc3ccc(OC(F)(F)F)cc3)cnc21 [Compound 19, 1-methyl-N-(2-methyl-1-(4-(trifluoromethoxy)phenyl)propan-2-yl)-1H-pyrrolo[2,3-b]pyridine-5-carboxamide]
≥ 70%: pest or weed control at 500 ppm (Alternaria solani) | pest or weed control at 500 ppm (Botrytis cinerea [2]) | pest or weed control at 500 ppm (Phakopsora pachyrhizi)

Cn1ccc2cc(C(=O)NC(C)(C)Cc3cccc(F)c3)cnc21 [Compound 21, N-(1-(3-fluorophenyl)-2-methylpropan-2-yl)-1-methyl-1H-pyrrolo[2,3-b]pyridine-5-carboxamide]
≥ 70%: pest or weed control at 500 ppm (Alternaria solani) | inhibition of growth at 300 ppm (Colletotrichum capsici) | pest or weed control at 500 ppm (Phakopsora pachyrhizi) | inhibition of growth at 300 ppm (Pyricularia oryzae)

CC(C)(Cc1ccccc1)NC(=O)c1cnc2ccsc2c1 [Compound 30, N-(2-methyl-1-phenylpropan-2-yl)thieno[3,2-b] pyridine-6-carboxamide]
≥ 70%: pest or weed control at 500 ppm (Alternaria solani) | inhibition of growth at 300 ppm (Phytophthora infestans [3]) | pest or weed control at 500 ppm (Botrytis cinerea [2]) | inhibition of growth at 300 ppm (Pyricularia oryzae)

CC(C)CC(C)(Cc1ccccc1)NC(=O)c1cnc2cc[nH]c2c1 (stereo not drawn) [Compound 73, N-(2,4-dimethyl-1-phenylpentan-2-yl)-1H-pyrrolo[3,2-b]pyridine-6-carboxamide]
≥ 70%: pest or weed control at 500 ppm (Alternaria solani) | inhibition of growth at 300 ppm (Parastagonospora nodorum) | inhibition of growth at 300 ppm (Botrytis cinerea [4]) | inhibition of growth at 300 ppm (Colletotrichum capsici) | inhibition of growth at 300 ppm (Phytophthora infestans [3]) | inhibition of growth at 300 ppm (Venturia Inequalis) | pest or weed control at 500 ppm (Botrytis cinerea [2]) | inhibition of growth at 300 ppm (Botrytis cinerea [5]) | pest or weed control at 500 ppm (Phytophthora infestans [1])

CC(Cc1ccccc1)C(C)(C)NC(=O)c1cnc2c(ccn2C)c1 (stereo not drawn) [Compound 80, N-(2,3-dimethyl-4-phenylbutan-2-yl)-1-methyl-1H-pyrrolo[2,3-b]pyridine-5-carboxamide]
≥ 70%: pest or weed control at 500 ppm (Alternaria solani) | inhibition of growth at 300 ppm (Parastagonospora nodorum) | inhibition of growth at 300 ppm (Colletotrichum capsici) | inhibition of growth at 300 ppm (Venturia Inequalis) | pest or weed control at 500 ppm (Phytophthora infestans [1])

COc1nc2c(ccn2C)cc1C(=O)NC(C)(Cc1ccccc1)CC(C)C (stereo not drawn) [Compound 92, N-(2,4-dimethyl-1-phenylpentan-2-yl)-6-methoxy-1-methyl-1H-pyrrolo[2,3-b]pyridine-5-carboxamide]
≥ 70%: inhibition of growth at 300 ppm (Phytophthora infestans [3]) | pest or weed control at 500 ppm (Botrytis cinerea [2]) | pest or weed control at 500 ppm (Fusarium culmorum)

Cc1cc2cc(C(=O)NC(C)(C)Cc3ccc(Cl)cc3)cnc2n1C [Compound 101, N-(1-(4-chlorophenyl)-2-methylpropan-2-yl)-1,2-dimethyl-1H-pyrrolo[2,3-b]pyridine-5-carboxamide]
≥ 70%: inhibition of growth at 300 ppm (Parastagonospora nodorum) | inhibition of growth at 300 ppm (Botrytis cinerea [4]) | inhibition of growth at 300 ppm (Colletotrichum capsici) | inhibition of growth at 300 ppm (Botrytis cinerea [5]) | pest or weed control at 500 ppm (Phakopsora pachyrhizi) | pest or weed control at 500 ppm (Fusarium culmorum)

Cc1ccc(CC(C)(C)NC(=O)c2cnc3c(c2)cc(C)n3C)cc1 [Compound 102, 1,2-dimethyl-N-(2-methyl-1-(p-tolyl)propan-2-yl)-1H-pyrrolo[2,3-b]pyridine-5-carboxamide]
≥ 70%: inhibition of growth at 300 ppm (Parastagonospora nodorum) | inhibition of growth at 300 ppm (Colletotrichum capsici) | inhibition of growth at 300 ppm (Venturia Inequalis) | pest or weed control at 500 ppm (Botrytis cinerea [2]) | pest or weed control at 500 ppm (Phakopsora pachyrhizi) | pest or weed control at 500 ppm (Fusarium culmorum)

Cc1cc2cc(C(=O)NC(C)(C)Cc3ccccc3F)cnc2n1C [Compound 103, N-(1-(2-fluorophenyl)-2-methylpropan-2-yl)-1,2-dimethyl-1H-pyrrolo[2,3-b]pyridine-5-carboxamide]
≥ 70%: inhibition of growth at 300 ppm (Parastagonospora nodorum) | inhibition of growth at 300 ppm (Colletotrichum capsici) | pest or weed control at 500 ppm (Phakopsora pachyrhizi) | pest or weed control at 500 ppm (Fusarium culmorum)

CC(C)(NC(=O)c1cnc2ccsc2c1)C(O)c1ccccc1 (stereo not drawn) [Compound 118, N-(1-hydroxy-2-methyl-1-phenylpropan-2-yl)thieno[3,2-b] pyridine-6-carboxamide]
≥ 70%: pest or weed control at 500 ppm (Alternaria solani) | inhibition of growth at 300 ppm (Parastagonospora nodorum) | inhibition of growth at 300 ppm (Botrytis cinerea [4]) | inhibition of growth at 300 ppm (Botrytis cinerea [5])

C=C(C)CC(C)(COc1ccc(F)cc1)NC(=O)c1cc2cc[nH]c2nc1C (stereo not drawn) [Compound 128, N-(1-(4-fluorophenoxy)-2,4-dimethylpent-4-en-2-yl)-6-methyl-1H-pyrrolo[2,3-b]pyridine-5-carboxamide]
≥ 70%: pest or weed control at 500 ppm (Alternaria solani) | pest or weed control at 500 ppm (Botrytis cinerea [2])

CCC(O)(CC)C(NC(=O)c1cnc2c(ccn2C)c1)c1ccc(F)cc1 (stereo not drawn) [Compound 131, N-(2-ethyl-1-(4-fluorophenyl)-2-hydroxybutyl)-1-methyl-1H-pyrrolo[2,3-b]pyridine-5-carboxamide]
≥ 70%: pest or weed control at 500 ppm (Alternaria solani) | pest or weed control at 500 ppm (Phakopsora pachyrhizi) | inhibition of growth at 300 ppm (Pyricularia oryzae)

CCC(O)(CC)C(NC(=O)c1cnc2ccsc2c1)c1ccc(F)cc1 (stereo not drawn) [Compound 132, N-(2-ethyl-1-(4-fluorophenyl)-2-hydroxybutyl)thieno [3,2-b]pyridine-6-carboxamide]
≥ 70%: pest or weed control at 500 ppm (Alternaria solani) | inhibition of growth at 300 ppm (Venturia Inequalis) | pest or weed control at 500 ppm (Phakopsora pachyrhizi)

Cc1ccccc1C(=O)OCC(C)(C)NC(=O)c1cnc2c(c1)CCCC2 [Compound 151, 2-methyl-2-(5,6,7,8-tetrahydroquinoline-3-carboxamido)propyl 2-methylbenzoate]
≥ 70%: pest or weed control at 500 ppm (Alternaria solani) | inhibition of growth at 300 ppm (Parastagonospora nodorum) | pest or weed control at 500 ppm (Botrytis cinerea [2]) | pest or weed control at 500 ppm (Phakopsora pachyrhizi)

Cn1cc(Cl)c2cc(C(=O)NC(C)(C)COC(=O)c3cccc(F)c3)cnc21 [Compound 153, 2-(3-chloro-1-methyl-1H-pyrrolo[2,3-b]pyridine-5-carboxamido)-2-methylpropyl 3-fluorobenzoate]
≥ 70%: pest or weed control at 500 ppm (Alternaria solani) | inhibition of growth at 300 ppm (Parastagonospora nodorum) | pest or weed control at 500 ppm (Botrytis cinerea [2])

C=C(C)CC(C)(COc1ccccc1F)NC(=O)c1cnc2c(ccn2C)c1 (stereo not drawn) [Compound 155, N-(1-(2-fluorophenoxy)-2,4-dimethylpent-4-en-2-yl)-1-methyl-1H-pyrrolo[2,3-b]pyridine-5-carboxamide]
≥ 70%: inhibition of growth at 300 ppm (Parastagonospora nodorum) | inhibition of growth at 300 ppm (Colletotrichum capsici) | inhibition of growth at 300 ppm (Venturia Inequalis) | pest or weed control at 500 ppm (Phakopsora pachyrhizi) | pest or weed control at 500 ppm (Fusarium culmorum)
